The values below come from ChEMBL document CHEMBL1140951, “2-Acetylpyridine thiosemicarbazones are potent iron chelators and antiproliferative agents: redox activity, iron complexation and characterization of their antitumor activity” (J Med Chem, 2009).

The structures appear in SMILES notation.

Data set [1] addresses Serotransferrin (Homo sapiens) (UniProt P02787). Put plainly: Induction of iron removal from 59Fe]transferrin assessed as iron release after 3 hrs relative to control. Also noted: concentration or dose not given beside the values.
Data set [2] can be described thus: Octanol-water partition coefficient, log P of the compound. The class given is physicochemical.
In data set [3] the target is Serotransferrin (Homo sapiens) (UniProt P02787). Briefly: Reduction of cellular iron uptake from 59Fe]transferrin in human SK-N-MC cells at 25 uM after 3 hrs relative to control. The format is cell-based. Further details: scale not given: the % may be the effect or the level left.
Chain of Serotransferrin (Homo sapiens) (P02787 whole entry): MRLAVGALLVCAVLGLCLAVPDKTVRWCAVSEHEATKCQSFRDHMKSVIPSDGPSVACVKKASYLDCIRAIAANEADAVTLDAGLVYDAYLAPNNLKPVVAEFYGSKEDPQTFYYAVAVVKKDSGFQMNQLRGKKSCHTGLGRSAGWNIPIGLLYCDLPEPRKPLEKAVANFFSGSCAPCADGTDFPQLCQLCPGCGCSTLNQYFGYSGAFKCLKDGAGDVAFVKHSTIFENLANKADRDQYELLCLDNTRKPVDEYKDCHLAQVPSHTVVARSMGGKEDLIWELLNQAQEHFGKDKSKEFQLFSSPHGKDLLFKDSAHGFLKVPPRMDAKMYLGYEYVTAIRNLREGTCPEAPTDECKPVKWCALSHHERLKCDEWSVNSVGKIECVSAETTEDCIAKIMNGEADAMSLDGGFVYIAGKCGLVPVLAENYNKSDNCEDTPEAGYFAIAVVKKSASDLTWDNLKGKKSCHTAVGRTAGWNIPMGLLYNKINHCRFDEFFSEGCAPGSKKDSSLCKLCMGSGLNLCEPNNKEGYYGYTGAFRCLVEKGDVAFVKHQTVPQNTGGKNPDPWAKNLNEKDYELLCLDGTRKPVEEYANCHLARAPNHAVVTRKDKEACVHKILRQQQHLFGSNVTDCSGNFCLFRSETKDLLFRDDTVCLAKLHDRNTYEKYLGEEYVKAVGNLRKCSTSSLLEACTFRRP
Data set [4] has as its system SK-N-MC. Put plainly: cells. The settings on record: Homo sapiens, 72 h.
Description: Antiproliferative activity against human SK-N-MC cells after 72 hrs by MTT assay
In data set [5] the test system is SK-N-MC. Put plainly: Induction of iron mobilization in 59Fe]transferrin labeled human SK-N-MC cells assessed as iron release at 25 uM after 3 hrs by gamma scintillation counter. The class given is functional.
Data set [6] deals with SK-N-MC. Put plainly: Cytotoxicity against 59Fe]transferrin prelabeled human SK-N-MC cells assessed as cell viability at 25 uM after 3 hrs. The class given is cell-based.

In the case of `NC(=S)NN=C(c1ccccn1)c1ccccn1`, the Activity in data set [1] was found to be 1.6%.

On to `C=CCNC(=S)N/N=C(\C)c1ccccn1`, for which, in data set [2], the logP is 1.76. Moreover, the Activity in data set [3] came out at 4%; in data set [1], 1.7%. This compound had an IC50 with SK-N-MC [4] of 1 nM.

Take `Cc1c(O)c(=O)ccn1C`: in data set [1], the Activity came to 20%.

Regarding `O=C(N/N=C/c1c(O)ccc2ccccc12)c1ccncc1`, it took 500 nM to reach half-maximal inhibition with SK-N-MC [4] (IC50).

`C/C(=N\NC(=S)N(C)C)c1ccccn1`: the logP in data set [2] was 1.8. Also, the Activity is 4% in data set [3] and 2.7% in data set [1]. This compound also registered an IC50 in the data set on SK-N-MC [4] of 1 nM.

Consider `CN(C)C(=S)NN=C(c1ccccn1)c1ccccn1`, for which the Activity with SK-N-MC [5] was found to be 27%; in data set [3], 7%; in data set [1], 2.9%.

Consider `Cc1ncc(CO)c(/C=N/NC(=O)c2ccncc2)c1O` [PYRIDOXAL ISONICOTINOYL HYDRAZONE], for which the Activity in the data set with SK-N-MC [5] turned out to be 37%; in data set [3] it was 11%.

Regarding `NC(=S)N/N=C(\c1ccccc1)c1ccccn1`, the Activity in data set [1] is 2%.

In turn, `C/C(=N\NC(=S)Nc1ccccc1)c1ccccn1` returned a logP in data set [2] of 2.99. The Activity with SK-N-MC [5] is 33%; in the data set with SK-N-MC [6], “Non-toxic”; in data set [3], 35%; in data set [1], 0.9%. In the data set with SK-N-MC [4], this compound had an IC50 of 1 nM.

Compound `CCNC(=S)N/N=C(\C)c1ccccn1` showed a logP in data set [2] of 1.52. Further, the Activity came out at 4% in data set [3] and 2.1% in data set [1]. Further, the IC50 with SK-N-MC [4] was found to be 2 nM.

Consider `CCNC(=S)N/N=C(\c1ccccc1)c1ccccn1`, for which the Activity in data set [1] amounted to 3.1%. This compound also yielded an IC50 with SK-N-MC [4] of 3 nM.

On to `CC(=O)N(O)CCCCCNC(=O)CCC(=O)N(O)CCCCCNC(=O)CCC(=O)N(O)CCCCCN` [DEFEROXAMINE], for which the figures for the Activity (with SK-N-MC [5]; in data set [3]; in data set [1]) were 13%, 83% and 14.2%, respectively. The compound further registered an IC50 in the data set on SK-N-MC [4] of 7350 nM.

As for `CNC(=S)N/N=C(\C)c1ccccn1`, the logP in data set [2] came to 2.7. Also, the Activity in data set [3] was 4%; in data set [1], 1.8%. In the data set on SK-N-MC [4], the IC50 is 11 nM.

Turning to `C/C(=N\NC(N)=S)c1ccccn1`, the logP in data set [2] was 1.52. Further, the Activity in data set [3] amounted to 4%; in data set [1], 1%. Besides, the IC50 with SK-N-MC [4] came to 3530 nM.
